Assay results: PubChem BioAssay (NCI)
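Interpolation was linear, between the two tested concentrations surrounding the appropriate level; five concentrations were tested over 48 hours in 96-well plates. Definition used: TGI = concentration required for complete inhibition of growth.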 Where a SMILES comes first, the peptide text is derived from it. [ ]: non-standard residue; d: D form. The star is where a group is joined. Phe(4-NO2) = N[CH](Cc1ccc([N+](=O)[O-])cc1)C(=O)O; Cbz = O=C(OCc1ccccc1)*

How the values were obtained:
Experiment in all cases: NCI anticancer screen, dose series, 48 h
UO-31 renal = system: UO-31 renal
TK-10 renal = system: TK-10 renal
U251 CNS = system: U251 CNS
CCRF-CEM leukemia = system: CCRF-CEM leukemia
MDA-MB-435 = system: MDA-MB-435
HOP-62 NSCLC = system: HOP-62 NSCLC
HT29 colon = system: HT29 colon
NCI-H460 lung = system: NCI-H460 lung
PC-3 prostate = system: PC-3 prostate
COLO 205 colon = system: COLO 205 colon
RPMI-8226 leukemia = system: RPMI-8226 leukemia
SK-MEL-2 melanoma = system: SK-MEL-2 melanoma
BT-549 breast = system: BT-549 breast
ACHN renal = system: ACHN renal
MDA-MB-231 breast = system: MDA-MB-231 breast
SK-MEL-28 melanoma = system: SK-MEL-28 melanoma
SF-539 CNS = system: SF-539 CNS

CCOC(=O)CCC(NC(=O)OCc1ccccc1)C(=O)NC(CCC(=O)OCC)C(=O)NC(Cc1ccc([N+](=O)[O-])cc1)C(=O)NC(CCC(=O)OCC)C(=O)NC(CCC(=O)OCC)C(=O)OCC (stereo not given) (Cbz-E(OEt)E(OEt)[Phe(4-NO2)]E(OEt)E(OEt)-OEt; configuration not given here)
TGI (UO-31 renal): > 100 µM
TGI (TK-10 renal): > 100 µM
TGI (U251 CNS): > 100 µM
TGI (CCRF-CEM leukemia): > 100 µM
TGI (MDA-MB-435): > 100 µM
TGI (HOP-62 NSCLC): > 100 µM
TGI (HT29 colon): > 100 µM
TGI (NCI-H460 lung): > 100 µM
TGI (PC-3 prostate): > 100 µM
TGI (COLO 205 colon): > 100 µM
TGI (RPMI-8226 leukemia): > 100 µM
TGI (SK-MEL-2 melanoma): > 100 µM
TGI (BT-549 breast): > 100 µM
TGI (ACHN renal): > 100 µM
TGI (MDA-MB-231 breast): > 100 µM
TGI (SK-MEL-28 melanoma): > 100 µM

N#CC1(C#N)NC(c2cccnc2)C(C#N)(C#N)NC1c1cccnc1 (stereo not given)
TGI (TK-10 renal): > 100 µM
TGI (SF-539 CNS): > 100 µM
TGI (U251 CNS): > 100 µM
TGI (CCRF-CEM leukemia): > 100 µM
TGI (MDA-MB-435): > 100 µM
TGI (HOP-62 NSCLC): > 100 µM
TGI (HT29 colon): > 100 µM
TGI (PC-3 prostate): > 100 µM
TGI (COLO 205 colon): > 100 µM
TGI (RPMI-8226 leukemia): > 100 µM
TGI (SK-MEL-2 melanoma): > 100 µM
TGI (BT-549 breast): > 100 µM
TGI (MDA-MB-231 breast): > 100 µM
TGI (SK-MEL-28 melanoma): > 100 µM

CC1(C)O[C@H]([C@H](O)c2nnc3ccc(Cl)nn23)[C@@H]([C@H]2COC(C)(C)O2)O1
TGI (TK-10 renal): > 100 µM
TGI (SF-539 CNS): > 100 µM
TGI (U251 CNS): > 100 µM
TGI (CCRF-CEM leukemia): > 100 µM
TGI (MDA-MB-435): > 100 µM
TGI (HOP-62 NSCLC): > 100 µM
TGI (HT29 colon): > 100 µM
TGI (NCI-H460 lung): > 100 µM
TGI (PC-3 prostate): > 100 µM
TGI (COLO 205 colon): > 100 µM
TGI (RPMI-8226 leukemia): > 100 µM
TGI (SK-MEL-2 melanoma): > 100 µM
TGI (BT-549 breast): > 100 µM
TGI (ACHN renal): > 100 µM
TGI (MDA-MB-231 breast): > 100 µM
TGI (SK-MEL-28 melanoma): > 100 µM

N=c1oc2c(Br)cc(Br)cc2cc1C(=O)Nc1ccccn1
TGI (SF-539 CNS): > 100 µM
TGI (U251 CNS): > 100 µM
TGI (CCRF-CEM leukemia): > 100 µM
TGI (MDA-MB-435): > 100 µM
TGI (HOP-62 NSCLC): > 100 µM
TGI (HT29 colon): > 100 µM
TGI (NCI-H460 lung): > 100 µM
TGI (PC-3 prostate): > 100 µM
TGI (COLO 205 colon): > 100 µM
TGI (RPMI-8226 leukemia): > 100 µM
TGI (SK-MEL-2 melanoma): 91.8 µM
TGI (BT-549 breast): > 100 µM
TGI (ACHN renal): > 100 µM
TGI (MDA-MB-231 breast): > 100 µM
TGI (SK-MEL-28 melanoma): > 100 µM

Cc1[nH]n(C2=NCCN2)c(=O)c1C
TGI (UO-31 renal): > 100 µM
TGI (TK-10 renal): > 100 µM
TGI (SF-539 CNS): > 100 µM
TGI (U251 CNS): > 100 µM
TGI (CCRF-CEM leukemia): > 100 µM
TGI (MDA-MB-435): > 100 µM
TGI (HOP-62 NSCLC): > 100 µM
TGI (HT29 colon): > 100 µM
TGI (NCI-H460 lung): > 100 µM
TGI (PC-3 prostate): > 100 µM
TGI (COLO 205 colon): > 100 µM
TGI (RPMI-8226 leukemia): > 100 µM
TGI (SK-MEL-2 melanoma): > 100 µM
TGI (BT-549 breast): > 100 µM
TGI (ACHN renal): > 100 µM
TGI (MDA-MB-231 breast): > 100 µM

NC1OC(COC(=O)c2ccccc2)C(O)C(OC(=O)c2ccccc2)C1OC(=O)c1ccccc1 (stereo not given)
TGI (UO-31 renal): 94.2 µM
TGI (TK-10 renal): > 100 µM
TGI (U251 CNS): 34.2 µM
TGI (MDA-MB-435): 46.7 µM
TGI (HOP-62 NSCLC): 50.2 µM
TGI (HT29 colon): 32.5 µM
TGI (NCI-H460 lung): 27.9 µM
TGI (PC-3 prostate): 58.2 µM
TGI (COLO 205 colon): 50.3 µM
TGI (RPMI-8226 leukemia): > 100 µM
TGI (SK-MEL-2 melanoma): 96.7 µM
TGI (BT-549 breast): 40.6 µM
TGI (ACHN renal): 56 µM
TGI (MDA-MB-231 breast): 45.9 µM
TGI (SK-MEL-28 melanoma): 42.7 µM

CC1(C)Oc2ccc3c(=O)c(-c4ccccc4)c(-c4ccccc4)oc3c2C1C(=O)O (stereo not given)
TGI (TK-10 renal): > 100 µM
TGI (SF-539 CNS): > 100 µM
TGI (U251 CNS): > 100 µM
TGI (CCRF-CEM leukemia): > 100 µM
TGI (MDA-MB-435): > 100 µM
TGI (HOP-62 NSCLC): > 100 µM
TGI (HT29 colon): > 100 µM
TGI (PC-3 prostate): > 100 µM
TGI (COLO 205 colon): > 100 µM
TGI (SK-MEL-2 melanoma): > 100 µM
TGI (BT-549 breast): > 100 µM
TGI (MDA-MB-231 breast): > 100 µM

C=C(C)CNC(=S)N(N)c1ccc(OC)cc1
TGI (UO-31 renal): > 100 µM
TGI (TK-10 renal): > 100 µM
TGI (SF-539 CNS): > 100 µM
TGI (U251 CNS): > 100 µM
TGI (CCRF-CEM leukemia): > 100 µM
TGI (MDA-MB-435): > 100 µM
TGI (HOP-62 NSCLC): > 100 µM
TGI (HT29 colon): > 100 µM
TGI (NCI-H460 lung): > 100 µM
TGI (PC-3 prostate): > 100 µM
TGI (COLO 205 colon): > 100 µM
TGI (RPMI-8226 leukemia): > 100 µM
TGI (BT-549 breast): > 100 µM
TGI (ACHN renal): > 100 µM
TGI (MDA-MB-231 breast): > 100 µM
TGI (SK-MEL-28 melanoma): > 100 µM
